According to patent US5264427A, “20-substituted pregnene derivatives and their use as androgen synthesis inhibitors” (priority 1992, dated 1993):
Like-named read-outs stand apart in the source and are kept apart here.

How the values were obtained:
Format in all cases: biochemical
C17,20-lyase = molecular target: T1, C17,20-lyase (Rattus norvegicus, UniProt P11715); assay: C17,20-lyase assay, rat testicular microsomes (Example 1, Table 1); conditions: rat testicular microsomes, 17(alpha)-hydroxyprogesterone substrate, 30 min, 37 C; N.I. = no inhibition
T1 construct: approximately 1 mg rat testicular microsomal protein in 450 microliters phosphate buffer; from tissue; host or cells: testes of adult male Sprague-Dawley rats (Charles River), microsomal fraction
T1 sequence (P11715 1-507): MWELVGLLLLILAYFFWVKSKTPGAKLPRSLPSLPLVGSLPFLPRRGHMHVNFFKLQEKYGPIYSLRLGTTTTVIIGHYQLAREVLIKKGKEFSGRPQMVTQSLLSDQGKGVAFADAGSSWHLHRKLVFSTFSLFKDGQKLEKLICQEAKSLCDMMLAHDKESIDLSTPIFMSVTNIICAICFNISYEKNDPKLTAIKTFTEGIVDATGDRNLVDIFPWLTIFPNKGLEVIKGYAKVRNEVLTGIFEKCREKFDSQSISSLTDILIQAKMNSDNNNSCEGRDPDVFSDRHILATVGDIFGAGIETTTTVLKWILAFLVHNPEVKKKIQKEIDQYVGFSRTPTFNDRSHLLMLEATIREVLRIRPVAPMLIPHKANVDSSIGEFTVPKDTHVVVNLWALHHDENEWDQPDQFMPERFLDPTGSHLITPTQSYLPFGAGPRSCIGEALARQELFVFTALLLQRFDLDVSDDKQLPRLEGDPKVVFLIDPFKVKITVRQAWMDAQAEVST
Method: (§1) Testes were obtained from 220°-250g adult male Sprague-Dawley rats (Charles River), immediately frozen in liquid nitrogen and stored at -70° C. After thawing in the ice bath, the testes were minced and homogenized in 0.25M sucrose (1:4 w/v), then centrifuged at 12,000×gfor 30 min and the resulting supernatant centrifuged at 105,000×g for one hour. The supernatant was then decanted and the pellet containing the microsomes was resuspended in 0.1M sodium phosphate buffer (pH 7.4) (2.5g wet weight of tissue/ 2 ml buffer). All the above procedures were performed at 4C. The microsomal fraction was stored at -70C. Just before use, microsomes were diluted to the concentration of 1.25 g wet weight of tissue/10 ml phosphate buffer.
(§2) C^17,20 -Lyase: The procedure for measurement of the C17,20 -lyase was similar to the procedure for the 17(alpha)-hydroxylase, except that the substrate was 17(alpha)-hydroxy-[[1,2,6,7-^3 H]-progesterone (various concentration, 10^5 dpm) and recovery markers were [4-^14 C]-labelled steroids. Carrier steroids (170HP4, A and T) were also added to locate the product areas on the TLC plates. The enzyme activity was determined from the percent conversion of 17(alpha)-hydroxy-[1,2,6,7-3H]-progesterone to A and T.
The purity of each steroid on the TLC was confirmed by two methods. First, the percent conversion of each compound in a half amount of the extract from one incubation were compared after separation of TLC and HPLC. The HPLC procedure has been described in detail previously. The solvent system used was methanol/acetonitrile/water (15.6:36.4:48). […] Secondly, after the first separation by TLC in solvent system A (hexane/ethyl acetate 65:35), the eluted steroids were chromatographed in solvent system B (chloroform/acetonitrile, 85:15).

[1] = molecular target: T2, 17(alpha)-hydroxylase/17,20-lyase enzyme (Rattus norvegicus, UniProt P11715); assay: 17(alpha)-hydroxylase/17,20-lyase inhibition, rat testicular microsomes (Example 1); conditions: result in words
T2 sequence (P11715 1-507): T1 sequence (P11715 1-507)
Method: as §1
The incubation was stopped by cooling the mixture in an ice bath and adding 2 ml ether to each incubation tube. The ^3 H-labelled steriods (progesterone P4; 17(alpha)-hydroxyprogesterone 170HP4, androstenedione A and testosterone T, 8,000dpm each) were added as recovery markers and the steroids were extracted with ether (2 ml×3). The ether was evaporated with air. Steroid carriers (P4, 17-0HP4, A and T, 4 micrograms each) were added to the extracts which were then applied to thin layer chromatography (TLC) plates for separation of the steroids. […] After evaporating the ether, the steroids were dissolved in counting cocktail and the radioactivity measured. The recovery of steroids calculated from the ^3 H-labelled markers was between 80 to 90 percent and the enzyme activity was determined from the percentage conversion of [4-C^14 ]-progesterone to 170HP4, A and T.
as §2, with “Carrier steroids (170HP4, A and T) were also added to locate the product areas on the TLC plates.” left out

[2] = molecular target: T3, 17(alpha)-hydroxylase/C17,20-lyase (Rattus norvegicus, UniProt P11715); assay: Hydroxylase/lyase assay, rat testis homogenates, [21-14C]-progesterone side-chain cleavage (Examples 2 and 3, Table 2); conditions: progesterone 40 microM, 45 min
T3 construct: with rat testis homogenates (2.7 mg protein in 0.5 ml phosphate buffer); from tissue; host or cells: rat testis homogenate
T3 sequence (P11715 1-507): T1 sequence (P11715 1-507)
Method: Compounds I-16 and I-25 were synthesized according to known procedures. The compounds were then assayed for their ability to inhibit the 17(alpha)-hydroxylase/C17,20 -lyase enzyme and the 5(alpha)-reductaseenzyme. The hydroxylase/lyase assay was carried out by incubation of [21-^14 C]-progesterone (40 microM, 70,000 dpm) and candidate inhibitors with rat testis homogenates (2.7 mg protein in 0.5 ml phosphate buffer), NADPH generating system under oxygen for 45 minutes. The enzyme activity was measured according to the conversion of progesterone to the product of C17,20 -side chain cleavage ([2-^14 C]-acetic acid). […] The results were based on the TLC separation.

17(alpha)-hydroxylase = molecular target: T4, 17(alpha)-hydroxylase (Rattus norvegicus, UniProt P11715); assay: 17(alpha)-hydroxylase assay, rat testicular microsomes (Example 1, Table 1); conditions: rat testicular microsomes, progesterone substrate, 30 min, 37 C; N.I. = no inhibition
T4 construct: approximately 1 mg rat testicular microsomal protein in 450 microliters phosphate buffer; from tissue; host or cells: testes of adult male Sprague-Dawley rats (Charles River), microsomal fraction
T4 sequence (P11715 1-507): T1 sequence (P11715 1-507)
Method: as §1
The incubation was stopped by cooling the mixture in an ice bath and adding 2 ml ether to each incubation tube. The ^3 H-labelled steriods (progesterone P4; 17(alpha)-hydroxyprogesterone 170HP4, androstenedione A and testosterone T, 8,000dpm each) were added as recovery markers and the steroids were extracted with ether (2 ml×3). The ether was evaporated with air. Steroid carriers (P4, 17-0HP4, A and T, 4 micrograms each) were added to the extracts which were then applied to thin layer chromatography (TLC) plates for separation of the steroids. After development for 1.5 hours in hexanes/ethyl acetate, 65:35(v/v), the steroids were located by UV (254 nm) absorption, scraped off and eluted into scintillation vials with ether. After evaporating the ether, the steroids were dissolved in counting cocktail and the radioactivity measured. The recovery of steroids calculated from the ^3 H-labelled markers was between 80 to 90 percent and the enzyme activity was determined from the percentage conversion of [4-C^14 ]-progesterone to 170HP4, A and T.
The purity of each steroid on the TLC was confirmed by two methods. First, the percent conversion of each compound in a half amount of the extract from one incubation were compared after separation of TLC and HPLC. The HPLC procedure has been described in detail previously. The solvent system used was methanol/acetonitrile/water (15.6:36.4:48). The flow rate was 1 ml/min and pressure 2200 psi, the retention time of these steroids was P4 38.3 min, 170HP4 15.93 min, A 14.33 min, and T 11.43 min, respectively. Secondly, after the first separation by TLC in solvent system A (hexane/ethyl acetate 65:35), the eluted steroids were chromatographed in solvent system B (chloroform/acetonitrile, 85:15).
^1 Incubation of [4^14 Cprogesterone (various concentration,
microsome (approximately 1 mg protein) and NADPH generating system was
carried out at 37 C. under O2 for 30 min. The apparent Km for this

[3] = molecular target: T5, rat testicular 17(alpha)-hydroxylase/C17,20-lyase (Rattus norvegicus, UniProt P11715); assay: Hydroxylase/lyase assay, rat testicular homogenates, [21-14C]progesterone (Example 4, Table 3); conditions: 0.75 h
T5 construct: rat testicular homogenates (prepared from 220-250g adult male Sprague-Dawley rats); from tissue; host or cells: testes of adult male Sprague-Dawley rats, homogenate
T5 sequence (P11715 1-507): T1 sequence (P11715 1-507)
Method: The assay was performed by incubation of rat testicular homogenates (prepared from 220-250g adult male Sprague-Dawley rats, approx. 3.5 mg protein) with [21-^14 C]progesterone (40uM, 5×10^4 dpm), NADPH generating system and candidate inhibitors in phosphate buffer (pH 7.4, total volume 500ul) under oxygen for 45 min at 37° C. Two ml of choloroform was added to each tube to stop the reaction. The steriods were extracted with chloroform and the aqueous phase was treated with charcoal. The side chain cleavage product [2-^14 C]acetic acid in the aqueous phase was mixed with 3a70B counting cocktail and counted on the Rack Beta II liquid scintillation counter. The enzyme activity was determined from the conversion of progesterone P4 to [2-^14 C]acetic acid.

[4] = pH 7.4, read-out: Inhibition of 17(alpha)-hydroxylase/C17,20-lyase (%), [I] = 10 × [S]
[5] = pH 7.4, read-out: Inhibition of 17(alpha)-hydroxylase/C17,20-lyase (%), [I] = [S]
[6] = [I] = 10 × [S], progesterone 40uM, pH 7.4, 45 min, 37 C, read-out: Inhibition of 17(alpha)-hydroxylase/C17,20-lyase (%), [I] = 10 × [S]
[7] = [I] = [S], progesterone 40uM, pH 7.4, 45 min, 37 C, read-out: Inhibition of 17(alpha)-hydroxylase/C17,20-lyase (%), [I] = [S]

CCN(CC)C(=O)[C@H]1CC[C@H]2[C@@H]3CC[C@H]4N(C)C(=O)CC[C@]4(C)[C@H]3CC[C@]12C [Compound 4-MA, N,N-diethyl-4-methyl-3-oxo-4-aza-5(alpha)-androstane-17(beta)-carboxyamide, reference compound]
C17,20-lyase Ki (C17,20-lyase): N.I. | inhibition of the 17(alpha)-hydroxylase/17,20-lyase enzyme [1]: did not show any inhibition | % Inhibition of 17(alpha)hydroxylase/lyase, [I] = 10 × [S] [2]: No inhibition | % Inhibition of 17(alpha)hydroxylase/lyase, [I] = [S] [2]: No inhibition | 17(alpha)-hydroxylase Ki (17(alpha)-hydroxylase): N.I

C[C@]12CCC(=O)C(O)=C1CC[C@@H]1[C@@H]2CC[C@]2(C)C(=O)CC[C@@H]12 [Compound 4-OHA, 4-hydroxy androstenedione, reference compound]
inhibition of the 17(alpha)-hydroxylase/17,20-lyase enzyme [1]: did not show any inhibition

CC(=NO)[C@H]1CC[C@H]2[C@@H]3CC=C4C[C@@H](O)CC[C@]4(C)[C@H]3CC[C@]12C [Compound I-1]
inhibition at 400 µM [3, 4]: 29.2% | inhibition at 40 µM [3, 5]: 15%

CC(=NO)C1=CC[C@H]2[C@@H]3CC=C4C[C@@H](O)CC[C@]4(C)[C@H]3CC[C@]12C [Compound I-5]
inhibition at 400 µM [3, 4]: 51.8% | inhibition at 40 µM [3, 5]: 25.2%

C[C@]12CC[C@H]3[C@@H](CC=C4C[C@@H](O)CC[C@@]43C)[C@@H]1CC[C@@H]2[C@]1(C)CO1 [Compound I-7, (20R)-20,21-epoxy-20-methyl-5-pregnen-3(beta)ol]
inhibition at 400 µM [3, 4]: 28.3% | inhibition at 40 µM [3, 5]: 21.6%

C[C@]12CC[C@H]3[C@@H](CC=C4C[C@@H](O)CC[C@@]43C)[C@@H]1CC[C@@H]2[C@@]1(C)CO1 [Compound I-8, (20S)-20,21-epoxy-20-methyl-5-pregnen-3(beta)-ol]
inhibition at 400 µM [3, 4]: 29.4% | inhibition at 40 µM [3, 5]: 16.3%

C[C@H](N)[C@H]1CC[C@H]2[C@@H]3CC=C4C[C@@H](O)CC[C@]4(C)[C@H]3CC[C@]12C [Compound I-9]
inhibition at 400 µM [3, 4]: 27.3% | inhibition at 40 µM [3, 5]: 13.6%

C[C@@H](N)[C@H]1CC[C@H]2[C@@H]3CC=C4C[C@@H](O)CC[C@]4(C)[C@H]3CC[C@]12C [Compound I-10]
inhibition at 400 µM [3, 4]: 33.8% | inhibition at 40 µM [3, 5]: 8.54%

CC(=NN)[C@H]1CC[C@H]2[C@@H]3CC=C4C[C@@H](O)CC[C@]4(C)[C@H]3CC[C@]12C [Compound I-12]
inhibition at 400 µM [3, 6]: 25.9% | inhibition at 40 µM [3, 7]: 8.55%

CC(=NN(C)C)C1=CC[C@H]2[C@@H]3CC=C4C[C@@H](O)CC[C@]4(C)[C@H]3CC[C@]12C [Compound I-14, 5,16-Pregnadien-3(beta)-ol-20-one N,N-dimethyl hydrazone]
inhibition at 400 µM [3, 6]: 2.34% | inhibition at 40 µM [3, 7]: 10.2%

C[C@H](C=NN(C)C)[C@H]1CC[C@H]2[C@@H]3CCC4=CC(=O)CC[C@]4(C)[C@H]3CC[C@]12C [Compound I-15, 4-pregnen-3-oxo-20(beta)-carboxaldehyde N,N-dimethyl hydrazone]
inhibition at 400 µM [3, 6]: 52.7% | inhibition at 40 µM [3, 7]: 22.4%

C[C@H](C=O)[C@H]1CC[C@H]2[C@@H]3CCC4=CC(=O)CC[C@]4(C)[C@H]3CC[C@]12C [Compound I-16, 4-pregnen-3-one-20(beta)carboxaldehyde]
% Inhibition of 17(alpha)hydroxylase/lyase, [I] = 10 × [S] [2]: 89.95% | % Inhibition of 17(alpha)hydroxylase/lyase, [I] = [S] [2]: 61.76%

CC(=O)[C@@]12O[C@@H]1C[C@H]1[C@@H]3CCC4=CC(=O)CC[C@]4(C)[C@H]3CC[C@@]12C [Compound I-18]
inhibition at 400 µM [3, 6]: 64.2% | inhibition at 40 µM [3, 7]: 26.5%

CC(=O)OC1=CC2=CC[C@H]3[C@@H]4CC[C@H]([C@H](C)C#N)[C@@]4(C)CC[C@@H]3[C@@]2(C)CC1 [Compound I-24]
inhibition at 400 µM [3, 6]: 67.2% | inhibition at 40 µM [3, 7]: 33.6%

CC(O)(C#N)[C@H]1CC[C@H]2[C@@H]3CCC4=CC(=O)CC[C@]4(C)[C@H]3CC[C@]12C (some centres unmarked) [Compound I-25, 20-cyano-20-hydroxy-4-pregnen-3-one]
% Inhibition of 17(alpha)hydroxylase/lyase, [I] = 10 × [S] [2]: 89.32% | % Inhibition of 17(alpha)hydroxylase/lyase, [I] = [S] [2]: 50.63%

CC(C#N)=C1CC[C@H]2[C@@H]3CCC4=CC(=O)CC[C@]4(C)[C@H]3CC[C@]12C [Compound I-26, 20-cyano-4,17(20)-pregnadien-3-one]
inhibition at 400 µM [3, 4]: 89.7% | inhibition at 40 µM [3, 5]: 53.5%

C=C[C@H]1CC[C@H]2[C@@H]3CC=C4C[C@@H](O)CC[C@]4(C)[C@H]3CC[C@]12C [Compound I-28]
inhibition at 400 µM [3, 4]: 18.3% | inhibition at 40 µM [3, 5]: 13.5%

C#C[C@H]1CC[C@H]2[C@@H]3CC=C4C[C@@H](O)CC[C@]4(C)[C@H]3CC[C@]12C [Compound I-29]
inhibition at 400 µM [3, 4]: 3.84% | inhibition at 40 µM [3, 5]: 8.26%
